Data on 42 compounds can be found in ChEMBL document CHEMBL1140325, “Discovery of high-affinity ligands of sigma1 receptor, ERG2, and emopamil binding protein by pharmacophore modeling and virtual screening” (J Med Chem, 2005).

A word on the Ki: it is a measure of affinity in units of concentration, obtained from inhibition or displacement.

For test [1], the target named is 3-beta-hydroxysteroid-Delta(8),Delta(7)-isomerase (Homo sapiens, UniProt Q15125). As to the kind of experiment: Affinity for human EMP expressed in ERG2 deficient strain of Saccharomyces cerevisiae using [3H]ifenprodil or (+)-[3H]pentazocine as radioligand.
For test [2], the target named is C-8 sterol isomerase ERG2 (Saccharomyces cerevisiae S288c, UniProt P32352). As to the kind of experiment: Affinity for ERG2 of Saccharomyces cerevisiae using [3H]ifenprodil or (+)-[3H]pentazocine radioligand.

Some results are limits rather than exact numbers.

3-beta-hydroxysteroid-Delta(8),Delta(7)-isomerase, sequence (Q15125 whole entry): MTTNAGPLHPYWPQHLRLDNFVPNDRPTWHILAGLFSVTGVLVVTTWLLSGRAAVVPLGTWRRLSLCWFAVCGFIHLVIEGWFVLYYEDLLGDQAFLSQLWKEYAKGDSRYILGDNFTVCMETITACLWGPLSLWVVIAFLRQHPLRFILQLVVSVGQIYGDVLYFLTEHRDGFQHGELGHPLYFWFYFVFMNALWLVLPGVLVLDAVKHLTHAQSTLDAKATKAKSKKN
C-8 sterol isomerase ERG2, sequence (P32352 whole entry): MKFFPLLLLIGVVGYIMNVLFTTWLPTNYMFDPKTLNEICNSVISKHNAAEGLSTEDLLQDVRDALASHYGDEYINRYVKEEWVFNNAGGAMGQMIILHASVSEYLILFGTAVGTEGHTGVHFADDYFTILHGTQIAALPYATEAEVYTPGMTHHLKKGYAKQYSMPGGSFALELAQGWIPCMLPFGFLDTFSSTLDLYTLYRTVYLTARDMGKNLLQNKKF

On to `CC(C)CCCC(C)CCCC(C)N1CC[C@H]2[C@H](C)[C@@H](O)CC[C@]2(C)C1` (stereo not given in full), for which the figures for the inhibition constant (Ki) in test [1] and in test [2] (read-out: Ki) were 0.6 nM and 0.4 nM, respectively.

On to `CC(C)[C@](C#N)(CCCN(C)CCc1ccccc1)c1ccccc1`, for which the results for the Ki in test [1] and in test [2] (read-out: Ki) were 6 nM and 65 nM, respectively. For the compound `CCCCCCCOc1ccccc1NC(=O)OC(C)CN(CC)CC` (stereo not given), the inhibition constant Ki in test [1] amounted to 51 nM; in test [2] (read-out: Ki), 2800 nM. In the case of `CCN(C/C=C/c1ccc(C2CCCCC2)c(Cl)c1)C1CCCCC1`, the inhibition constant (Ki) was determined as 3 nM in test [1] and 9 nM in test [2] (read-out: Ki). On the same counts, the results for `O=C(O)c1ccc(CCN2CCN(C/C=C/c3ccc(Cl)cc3)CC2)cc1` are 34000 nM and 16500 nM.

For `CC/C(=C(/CC)c1ccc(OCCN(CC)CC)cc1)c1ccc(OCCN(CC)CC)cc1`, the inhibitory constant (Ki) in test [1] worked out at 54 nM; in test [2] (read-out: Ki), 0.7 nM.

In the case of `CCCN(CCC)CCc1ccc(OC)c(OCCc2ccccc2)c1`, the Ki in test [1] stood at 15 nM. With `C=CCN1CC[C@@]2(C)c3cc(O)ccc3CC1[C@H]2C`, the Ki was 9300 nM in test [1] and 4700 nM in test [2] (read-out: Ki). Take `CC(C)=CCN1CC[C@@]2(C)c3cc(O)ccc3CC1[C@H]2C`: the Ki in test [1] came out at 500 nM; in test [2] (read-out: Ki), 1000 nM. In the case of `N=C(NCc1ccccc1)Nc1nc(-c2cc3ccccc3[nH]2)cs1`, the inhibitory constant (Ki) in test [1] worked out at 8500 nM; in test [2] (read-out: Ki) it was 31700 nM.

Consider `CN(c1nc2ccccc2s1)C1CCN(CCCCOc2ccccc2)C1` (stereo not given), for which the inhibition constant Ki stood at 450 nM in test [1] and 169 nM in test [2] (read-out: Ki). On the same counts, the results for `CCN(CC)CCO[C@H]1CC[C@@]2(C)C(=CC[C@@H]3[C@@H]2CC[C@]2(C)C(=O)CC[C@@H]32)C1` are 2 nM and 0.2 nM. Take `CC1CC[C@]2(NC1)O[C@H]1C[C@H]3[C@@H]4CC[C@H]5C[C@@H](O)CC[C@]5(C)[C@H]4CC[C@]3(C)[C@H]1[C@@H]2C` (stereo not given in full): the Ki in test [1] amounted to 583 nM; in test [2] (read-out: Ki), 387 nM. For `N=C(NCCSC(c1ccccc1)c1ccccc1)NCCc1cnc[nH]1`, the inhibitory constant (Ki) was 39 nM in test [1] and 170 nM in test [2] (read-out: Ki). The corresponding values for `CCCCCCCCCCCCCN1C[C@@H](C)O[C@@H](C)C1` are 1 nM and 0.09 nM. On the same counts, the results for `CC1=C2C[C@H]3[C@@H](CC=C4C[C@@H](O)CC[C@@]43C)[C@@H]2CC[C@]12O[C@]1(C)C[C@H](C)CN[C@H]1[C@H]2C` are 654 nM and 500 nM. Take `CC1CC[C@@]2(NC1)O[C@H]1C[C@H]3[C@@H]4CC=C5C[C@@H](O)CC[C@]5(C)[C@H]4CC[C@]3(C)[C@H]1[C@@H]2C` (stereo not given in full): the inhibitory constant (Ki) in test [1] is above 100000 nM; in test [2] (read-out: Ki), 1170 nM. The corresponding values for `CCCCN1CCC2(CCCc3ccccc32)CC1` are 1 nM and 5 nM. The corresponding values for `CCCN1CCC[C@H](c2cccc(O)c2)C1` are 2200 nM and 1200 nM. The corresponding values for `C[C@H]1CCC2[C@@H](C)[C@H]3[C@H](C[C@H]4C5CC=C6C[C@@H](O)CC[C@]6(C)[C@H]5CC[C@]34C)N2C1` (single isomer, unassigned) are 441 nM and above 100000 nM. Regarding `C[C@H]([C@@H](O)c1ccc(O)cc1)N1CCC(Cc2ccccc2)CC1` [(S,R)-IFENPRODIL], the Ki in test [2] (read-out: Ki) was determined as 1 nM. As for `COc1cc(OC)c(C(=O)CCCN2CCCC2)c(OC)c1` [BUFLOMEDIL], the figures for the Ki in test [1] and in test [2] (read-out: Ki) were 60 nM and 7150 nM, respectively.

Turning to `C[C@]12C[C@H](O)[C@H]3[C@@H](CCC4=CC(=O)CC[C@@]43C)[C@@H]1CC[C@@H]2C(=O)CO` [CORTICOSTERONE], the Ki in test [1] and in test [2] (read-out: Ki) was above 100000 nM throughout. For the compound `Cc1ccccc1NC(=N)Nc1ccccc1C` [DITOLYLGUANIDINE], the inhibition constant (Ki) in test [1] was 6700 nM; in test [2] (read-out: Ki) it was 2000 nM. As to `CCN(CC)CCOc1ccc(/C(=C(/Cl)c2ccccc2)c2ccccc2)cc1` [ENCLOMIPHENE], the inhibitory constant (Ki) amounted to 1 nM in test [1] and 160 nM in test [2] (read-out: Ki). `CC(Cc1ccc(C(C)(C)C)cc1)CN1C[C@@H](C)O[C@@H](C)C1` (stereo not given in full) [FENPROPIMORPH]: the Ki is 30 nM in test [1] and 0.05 nM in test [2] (read-out: Ki).

Take `O=C(CCCN1CCC(O)(c2ccc(Cl)cc2)CC1)c1ccc(F)cc1` [HALOPERIDOL]: the inhibitory constant (Ki) in test [1] worked out at 190 nM; in test [2] (read-out: Ki), 0.5 nM. With `CC1=C2C(=O)[C@H]3[C@@H](CC=C4C[C@@H](O)CC[C@@]43C)[C@@H]2CC[C@]12O[C@@H]1C[C@H](C)CN[C@H]1[C@H]2C` [JERVINE], the Ki in test [1] was above 100000 nM; in test [2] (read-out: Ki), 284 nM.

Consider `CC(C)[C@@](C#N)(CCCN(C)CCc1ccccc1)c1ccccc1` [LEVEMOPAMIL], for which the inhibition constant (Ki) was found to be 18 nM in test [1] and 74 nM in test [2] (read-out: Ki). `COc1ccc2c(c1)CCC(c1ccccc1)=C2c1ccc(OCCN2CCCC2)cc1` [NAFOXIDINE]: the Ki in test [2] (read-out: Ki) is 232 nM. For `CN(C/C=C/c1ccccc1)Cc1cccc2ccccc12` [NAFTIFINE], the values for the Ki in test [1] and in test [2] (read-out: Ki) were 1500 nM and 310 nM, respectively.

On to `OCCN1CCN(CCCN2c3ccccc3C=Cc3ccccc32)CC1` [OPIPRAMOL], for which the inhibition constant (Ki) in test [1] is 13 nM; in test [2] (read-out: Ki) it was 17 nM. Consider `CC(=O)[C@H]1CC[C@H]2[C@@H]3CCC4=CC(=O)CC[C@]4(C)[C@H]3CC[C@]12C` [PROGESTERONE], for which the Ki in test [1] was above 100000 nM; in test [2] (read-out: Ki), 4430 nM. On the same counts, the results for `O=C(c1ccc(OCCN2CCCCC2)cc1)c1c(-c2ccc(O)cc2)sc2cc(O)ccc12` [RALOXIFENE] are 1 nM and 66 nM. The corresponding values for `CCCCCCCCCCCCC(C#N)(CCCN(C)CCc1ccccc1)c1ccccc1` (stereo not given) [RONIPAMIL] are 2 nM and 13 nM.

Regarding `CC/C(=C(\c1ccccc1)c1ccc(OCCN(C)C)cc1)c1ccccc1` [TAMOXIFEN], in test [2], the inhibitory constant (Ki) was determined as 1500 nM.

Consider `CN(C/C=C/C#CC(C)(C)C)Cc1cccc2ccccc12` [TERBINAFINE], for which the Ki in test [1] and in test [2] (read-out: Ki) was above 50000 nM throughout.

Regarding `C[C@]12CC[C@H]3[C@@H](CCC4=CC(=O)CC[C@@]43C)[C@@H]1CC[C@@H]2O` [TESTOSTERONE], the Ki was above 100000 nM in test [1] and 7760 nM in test [2] (read-out: Ki).

Turning to `CN1CCN(CCCN2c3ccccc3Sc3ccc(C(F)(F)F)cc32)CC1` [TRIFLUOPERAZINE], the inhibition constant Ki in test [1] stood at 8 nM; in test [2] (read-out: Ki) it was 500 nM.

For `O=C(CCCN1CCC(O)(c2cccc(C(F)(F)F)c2)CC1)c1ccc(F)cc1` [TRIFLUPERIDOL], the inhibition constant Ki in test [1] amounted to 165 nM; in test [2] (read-out: Ki), 0.15 nM. Consider `CCN(CC)CCOc1ccc(C(O)(Cc2ccc(Cl)cc2)c2ccc(C)cc2)cc1` (stereo not given) [TRIPARANOL], for which the figures for the inhibition constant (Ki) in test [1] and in test [2] (read-out: Ki) were 11 nM and 2 nM, respectively.

On to `CCN(CC)CCOc1ccc(/C(=C(\Cl)c2ccccc2)c2ccccc2)cc1` [ZUCLOMIPHENE], for which the Ki in test [1] and in test [2] (read-out: Ki) was 2 nM throughout.
